Measurements: ChEMBL document CHEMBL3525923, “Identification of the metabolites of the antioxidant flavonoid 7-mono-O-(β-hydroxyethyl)-rutoside in mice” (Drug Metab Dispos, 2011)

Experiments:
[1] = Drug level in BALB/c mouse bile assessed as compound formation treated with monoHER at 500 mg/kg, ip measured after 60 mins by LC-DAD-TOF-MS analysis; type: ADME, organism-based; parameters: dose 500 mg/kg, route intraperitoneal; conditions: in vivo, 1 h
[2] = Drug level in BALB/c mouse bile treated with 7-mono-O-(beta-hydroxyethyl)-rutoside assessed as relative metabolite level at 500 mg/kg, ip measured after 60 mins by LC-DAD-TOF-MS analysis; type: ADME, organism-based; parameters: dose 500 mg/kg, route intraperitoneal; conditions: in vivo, 1 h
[3] = Retention time of the compound by LC-DAD-TOF-MS analysis; type: physicochemical
[4] = Drug level in BALB/c mouse bile assessed as compound formation treated with monoHER at 500 mg/kg, ip measured after 240 mins by LC-DAD-TOF-MS analysis; type: ADME, organism-based; parameters: dose 500 mg/kg, route intraperitoneal; conditions: in vivo, 4 h
[5] = Half life in mouse plasma; type: ADME, cell-free
[6] = Half life in mouse heart; type: ADME
[7] = Drug metabolism in BALB/c mouse bile assessed as (2S,3S,4S,5R,6S)-6-(5-(7-(carboxymethoxy)-5-hydroxy-4-oxo-3-((2S,3R,4S,5S,6R)-3,4,5-trihydroxy-6-(((2R,3R,4R,5R,6S)-3,4,5-trihydroxy-6-methyltetrahydro-2H-pyran-2-yloxy)methyl)tetrahydro-2H-pyran-2-yloxy)-4H-chromen-2-yl)-2-hydroxyphenoxy)-3,4,5-trihydroxytetrahydro-2H-pyran-2-carboxylic acid formation at 500 mg/kg, ip measured after 60 mins by LC-DAD-TOF-MS analysis; type: ADME, organism-based; parameters: dose 500 mg/kg, route intraperitoneal; conditions: in vivo, 1 h
[8] = Drug metabolism in BALB/c mouse bile assessed as (2S,3S,4S,5R,6S)-6-(5-(7-(carboxymethoxy)-5-hydroxy-4-oxo-3-((2S,3R,4S,5S,6R)-3,4,5-trihydroxy-6-(((2R,3R,4R,5R,6S)-3,4,5-trihydroxy-6-methyltetrahydro-2H-pyran-2-yloxy)methyl)tetrahydro-2H-pyran-2-yloxy)-4H-chromen-2-yl)-2-methoxyphenoxy)-3,4,5-trihydroxytetrahydro-2H-pyran-2-carboxylic acid formation at 500 mg/kg, ip measured after 60 mins by LC-DAD-TOF-MS analysis; type: ADME, organism-based; parameters: dose 500 mg/kg, route intraperitoneal; conditions: in vivo, 1 h
[9] = Drug metabolism in BALB/c mouse bile assessed as 2-(3,4-dimethoxyphenyl)-5-hydroxy-7-(2-hydroxyethoxy)-3-((2S,3R,4S,5S,6R)-3,4,5-trihydroxy-6-(hydroxymethyl)tetrahydro-2H-pyran-2-yloxy)-4H-chromen-4-one formation at 500 mg/kg, ip measured after 240 mins by LC-DAD-TOF-MS analysis; type: ADME, organism-based; parameters: dose 500 mg/kg, route intraperitoneal; conditions: in vivo
[10] = Drug metabolism in BALB/c mouse bile assessed as 2-(3,4-dimethoxyphenyl)-5-hydroxy-7-(2-hydroxyethoxy)-3-((2S,3R,4S,5S,6R)-3,4,5-trihydroxy-6-(((2R,3R,4R,5R,6S)-3,4,5-trihydroxy-6-methyltetrahydro-2H-pyran-2-yloxy)methyl)tetrahydro-2H-pyran-2-yloxy)-4H-chromen-4-one formation at 500 mg/kg, ip measured after 60 mins by LC-DAD-TOF-MS analysis; type: ADME, organism-based; parameters: dose 500 mg/kg, route intraperitoneal; conditions: in vivo, 1 h
[11] = Drug metabolism in BALB/c mouse bile assessed as (S)-4-amino-5-((R)-1-(carboxymethylamino)-3-(2,3-dihydroxy-6-(5-hydroxy-7-(2-hydroxyethoxy)-4-oxo-3-((2S,3R,4S,5S,6R)-3,4,5-trihydroxy-6-(((2R,3R,4R,5R,6S)-3,4,5-trihydroxy-6-methyltetrahydro-2H-pyran-2-yloxy)methyl)tetrahydro-2H-pyran-2-yloxy)-4H-chromen-2-yl)phenylthio)-1-oxopropan-2-ylamino)-5-oxopentanoic acid formation at 500 mg/kg, ip measured after 60 mins by LC-DAD-TOF-MS analysis; type: ADME, organism-based; parameters: dose 500 mg/kg, route intraperitoneal; conditions: in vivo, 1 h
[12] = Drug metabolism in BALB/c mouse bile assessed as (2S,2'S,3S,3'S,4S,4'S,5R,5'R,6S,6'S)-6,6'-(4-(5-hydroxy-7-(2-hydroxyethoxy)-4-oxo-3-((2S,3R,4S,5S,6R)-3,4,5-trihydroxy-6-(((2R,3R,4R,5R,6S)-3,4,5-trihydroxy-6-methyltetrahydro-2H-pyran-2-yloxy)methyl)tetrahydro-2H-pyran-2-yloxy)-4H-chromen-2-yl)-1,2-phenylene)bis(oxy)bis(3,4,5-trihydroxytetrahydro-2H-pyran-2-carboxylic acid) formation at 500 mg/kg, ip measured after 60 mins by LC-DAD-TOF-MS analysis; type: ADME, organism-based; parameters: dose 500 mg/kg, route intraperitoneal; conditions: in vivo, 1 h
[13] = Drug metabolism in BALB/c mouse bile assessed as 5-hydroxy-2-(3-hydroxy-4-methoxyphenyl)-7-(2-hydroxyethoxy)-3-((2S,3R,4S,5S,6R)-3,4,5-trihydroxy-6-(hydroxymethyl)tetrahydro-2H-pyran-2-yloxy)-4H-chromen-4-one formation at 500 mg/kg, ip measured after 240 mins by LC-DAD-TOF-MS analysis; type: ADME, organism-based; parameters: dose 500 mg/kg, route intraperitoneal; conditions: in vivo
[14] = Drug metabolism in BALB/c mouse bile assessed as (2S,3S,4S,5R,6S)-3,4,5-trihydroxy-6-(5-(5-hydroxy-7-(2-hydroxyethoxy)-4-oxo-3-((2S,3R,4S,5S,6R)-3,4,5-trihydroxy-6-(((2R,3R,4R,5R,6S)-3,4,5-trihydroxy-6-methyltetrahydro-2H-pyran-2-yloxy)methyl)tetrahydro-2H-pyran-2-yloxy)-4H-chromen-2-yl)-2-methoxyphenoxy)tetrahydro-2H-pyran-2-carboxylic acid formation at 500 mg/kg, ip measured after 60 mins by LC-DAD-TOF-MS analysis; type: ADME, organism-based; parameters: dose 500 mg/kg, route intraperitoneal; conditions: in vivo, 1 h
[15] = Drug metabolism in BALB/c mouse bile assessed as 2-(2-(3,4-dihydroxyphenyl)-5-hydroxy-4-oxo-3-((2S,3R,4S,5S,6R)-3,4,5-trihydroxy-6-(((2R,3R,4R,5R,6S)-3,4,5-trihydroxy-6-methyltetrahydro-2H-pyran-2-yloxy)methyl)tetrahydro-2H-pyran-2-yloxy)-4H-chromen-7-yloxy)acetic acid formation at 500 mg/kg, ip measured after 60 mins by LC-DAD-TOF-MS analysis; type: ADME, organism-based; parameters: dose 500 mg/kg, route intraperitoneal; conditions: in vivo, 1 h
[16] = Drug metabolism in BALB/c mouse bile assessed as 5-hydroxy-2-(3-hydroxy-4-methoxyphenyl)-7-(2-hydroxyethoxy)-3-((2S,3R,4S,5S,6R)-3,4,5-trihydroxy-6-(((2R,3R,4R,5R,6S)-3,4,5-trihydroxy-6-methyltetrahydro-2H-pyran-2-yloxy)methyl)tetrahydro-2H-pyran-2-yloxy)-4H-chromen-4-one formation at 500 mg/kg, ip measured after 60 mins by LC-DAD-TOF-MS analysis; type: ADME, organism-based; parameters: dose 500 mg/kg, route intraperitoneal; conditions: in vivo, 1 h
[17] = Drug metabolism in BALB/c mouse bile assessed as 2-(5-hydroxy-2-(3-hydroxy-4-methoxyphenyl)-4-oxo-3-((2S,3R,4S,5S,6R)-3,4,5-trihydroxy-6-(((2R,3R,4R,5R,6S)-3,4,5-trihydroxy-6-methyltetrahydro-2H-pyran-2-yloxy)methyl)tetrahydro-2H-pyran-2-yloxy)-4H-chromen-7-yloxy)acetic acid formation at 500 mg/kg, ip measured after 60 mins by LC-DAD-TOF-MS analysis; type: ADME, organism-based; parameters: dose 500 mg/kg, route intraperitoneal; conditions: in vivo, 1 h

Drug metabolism [1] | Relative metabolite level in bile [2] [%] | Retention_time [3] [min] | SMILES | further results
metabolite_detected | 0.7 | 7.1 | C[C@@H]1O[C@@H](OC[C@H]2O[C@@H](Oc3c(-c4ccc(O[C@@H]5O[C@H](C(=O)O)[C@@H](O)[C@H](O)[C@H]5O)c(O[C@@H]5O[C@H](C(=O)O)[C@@H](O)[C@H](O)[C@H]5O)c4)oc4cc(OCCO)cc(O)c4c3=O)[C@H](O)[C@@H](O)[C@@H]2O)[C@H](O)[C@H](O)[C@H]1O | –
– | 0.9 | 7.6 | COc1ccc(-c2oc3cc(OCCO)cc(O)c3c(=O)c2O[C@@H]2O[C@H](CO)[C@@H](O)[C@H](O)[C@H]2O)cc1O | Drug metabolism [4]: metabolite_detected
– | 0.6 | 12.5 | COc1ccc(-c2oc3cc(OCCO)cc(O)c3c(=O)c2O[C@@H]2O[C@H](CO)[C@@H](O)[C@H](O)[C@H]2O)cc1OC | Drug metabolism [4]: metabolite_detected
metabolite_detected | 0.5 | 14.8 | COc1ccc(-c2oc3cc(OCCO)cc(O)c3c(=O)c2O[C@@H]2O[C@H](CO[C@@H]3O[C@@H](C)[C@H](O)[C@@H](O)[C@H]3O)[C@@H](O)[C@H](O)[C@H]2O)cc1OC | –
metabolite_detected | 0.3 | 7.8 | C[C@@H]1O[C@@H](OC[C@H]2O[C@@H](Oc3c(-c4ccc(O)c(O[C@@H]5O[C@H](C(=O)O)[C@@H](O)[C@H](O)[C@H]5O)c4)oc4cc(OCC(=O)O)cc(O)c4c3=O)[C@H](O)[C@@H](O)[C@@H]2O)[C@H](O)[C@H](O)[C@H]1O | –
metabolite_detected | 0.4 | 8.8 | COc1ccc(-c2oc3cc(OCC(=O)O)cc(O)c3c(=O)c2O[C@@H]2O[C@H](CO[C@@H]3O[C@@H](C)[C@H](O)[C@@H](O)[C@H]3O)[C@@H](O)[C@H](O)[C@H]2O)cc1O[C@@H]1O[C@H](C(=O)O)[C@@H](O)[C@H](O)[C@H]1O | –
metabolite_detected | 9 | 6.9 | COc1ccc(-c2oc3cc(OCCO)cc(O)c3c(=O)c2O[C@@H]2O[C@H](CO[C@@H]3O[C@@H](C)[C@H](O)[C@@H](O)[C@H]3O)[C@@H](O)[C@H](O)[C@H]2O)cc1O[C@@H]1O[C@H](C(=O)O)[C@@H](O)[C@H](O)[C@H]1O | –
metabolite_detected | 2 | 9.7 | C[C@@H]1O[C@@H](OC[C@H]2O[C@@H](Oc3c(-c4ccc(O)c(O)c4)oc4cc(OCC(=O)O)cc(O)c4c3=O)[C@H](O)[C@@H](O)[C@@H]2O)[C@H](O)[C@H](O)[C@H]1O | –
metabolite_detected | 40 | 11.1 | COc1ccc(-c2oc3cc(OCCO)cc(O)c3c(=O)c2O[C@@H]2O[C@H](CO[C@@H]3O[C@@H](C)[C@H](O)[C@@H](O)[C@H]3O)[C@@H](O)[C@H](O)[C@H]2O)cc1O | –
metabolite_detected | 5 | 12.3 | COc1ccc(-c2oc3cc(OCC(=O)O)cc(O)c3c(=O)c2O[C@@H]2O[C@H](CO[C@@H]3O[C@@H](C)[C@H](O)[C@@H](O)[C@H]3O)[C@@H](O)[C@H](O)[C@H]2O)cc1O | –
metabolite_detected | 0.6 | 3.4 | C[C@@H]1O[C@@H](OC[C@H]2O[C@@H](Oc3c(-c4ccc(O)c(O)c4SC[C@H](NC(=O)CC[C@H](N)C(=O)O)C(=O)NCC(=O)O)oc4cc(OCCO)cc(O)c4c3=O)[C@H](O)[C@@H](O)[C@@H]2O)[C@H](O)[C@H](O)[C@H]1O | –
– | – | – | COc1cccc2c1C(=O)c1c(O)c3c(c(O)c1C2=O)C[C@@](O)(C(=O)CO)C[C@@H]3O[C@H]1C[C@H](N)[C@H](O)[C@H](C)O1 [DOXORUBICIN] | half-life [5]: 756 min; half-life [6]: 690 min
– | 29 | 8.5 | C[C@@H]1O[C@@H](OC[C@H]2O[C@@H](Oc3c(-c4ccc(O)c(O)c4)oc4cc(OCCO)cc(O)c4c3=O)[C@H](O)[C@@H](O)[C@@H]2O)[C@H](O)[C@H](O)[C@H]1O [MONOXERUTIN] | Drug metabolism [7]: metabolite_detected; Drug metabolism [8]: metabolite_detected; Drug metabolism [9]: metabolite_detected; Drug metabolism [10]: metabolite_detected; half-life [5]: 11.8 min; half-life [6]: 16.2 min; Drug metabolism [11]: metabolite_detected; Drug metabolism [12]: metabolite_detected; Drug metabolism [13]: metabolite_detected; Drug metabolism [14]: metabolite_detected; Drug metabolism [15]: metabolite_detected; Drug metabolism [16]: metabolite_detected; Drug metabolism [17]: metabolite_detected
